The structures appear in SMILES notation. ≈ marks a conversion by molar mass, not a printed value. Where “and” joins values, the source holds several entries; their conditions need not be identical. Equal values may be shown once. Read-outs that look alike come from different tables or passages of the source.

For data set [1] the following is noted: animal studies to date; cited from earlier work.
For data set [2] the following is noted: cited from earlier work.
Data set [3] has as its system pancreatic Bxpc-3, Capan-1, Capan-2, HS766-T and ASPC-1 cells. Kind of data set: MTT proliferation/survival assay, statements on all five pancreatic lines. It counts as cell-based. Conditions: seventy-two hours of exposure. On the procedure: (§1) Controls were exposed to 0.1% v/v DMSO. Proliferation and survival of the pancreatic cells were assessed by MTT assay, a standard colorimetric assay used to measure cell survival and proliferation (Mosman, 1983). MTT (3-[4,5-cimethylthiazol-2-yl]-2,5-diphenyl tetrazolium bromide) is cleaved by living cells to yield a dark blue formazan product. The color is quantitated by spectrophotometer and reflects cellular proliferation and survival. […] The control for each assay was exposed to 0.1% v/v DMSO.
(§2) MTT proliferation/survival assay was performed after 72 hours of incubation.
(§3) FIGS. 5-10 show graphs of the results of the assays using Bxpc-3, Capan-1, Capan-2, HS766-1 and ASPC-1 cell lines, respectively. […] The MTT assay was performed after pancreatic cells were exposed for 72 hours to each compound at concentrations ranging from 0 to 5 μg/ml.

Data set [4] concerns HS766-T pancreatic carcinoma cells. Kind of data set: MTT proliferation/survival assay, 72 hours incubation. It counts as cell-based. As to conditions: Hs766T. The method, then: as §1, §2, §3
For data set [5], the system named is Capan-2 pancreatic carcinoma cells. The data set is described as above. In kind it is cell-based. As to conditions: Homo sapiens, Capan-2, 72 h, CAPAN-2, MTT assay. On the procedure: as §1, §2, §3
For data set [6], the system named is ASPC-1 pancreatic carcinoma cells. Described as above. In kind it is cell-based. Conditions: Homo sapiens, ASPC1, ASPC-1, MTT assay. The method, then:
as §1, §2, §3
Background: Formazan colour is commonly taken as a measure of viable cells.

Data set [7] deals with Capan-1 pancreatic carcinoma cells. The description is as above. It counts as cell-based. Conditions: Homo sapiens. The method, then:
as §1, §2, §3

Data set [8] deals with Bxpc-3 pancreatic carcinoma cells. The data set is described as above. It counts as cell-based. Conditions: Homo sapiens. On the procedure:
as §1, §2, §3

Data set [9] concerns pancreatic BxPC-3 or HS766-T cells. Kind of data set: Apoptosis assay, Annexin-V/Proopidium iodide staining (FACS analysis). It counts as cell-based. As to conditions: concentrations equal to IC50 or IC90 of liposomal curcumin, 72 hours. On the procedure:
Apoptosis assay was performed using either pancreatic BxPC-3 or HS766-T cells. […] After incubation for 72 hours, the cells were assayed using Annexin-V/Proopidium iodide staining (FACS analysis) to determine how much apoptosis had occurred.
For orientation: A flow cytometer gives signals particle by particle.

Turning to `COc1cc(C=CC(=O)CC(=O)C=Cc2ccc(O)c(OC)c2)ccc1O` [free curcumin, (E,E)-1,7-bis(4-hydroxy-3-methoxyphenyl)-1,6-heptadiene-3,5,-dione], the LD50 entry in data set [1] is reported as “never reached an LD50”. Besides, the “solubility in ethanol, alkalis, ketones, acetic acid and chloroform” value in data set [2] is reported as “soluble”. Moreover, the solubility in water result in data set [2] (water) is “insoluble”. The “pancreatic cell growth (MTT)” value in data set [3] was “inhibited pancreatic cell growth of all five lines tested in a concentration-dependent manner”. The IC50 was 2.6 µg/mL and 7 µM in [4]; 17 µg/mL (≈ 46.1 µM) in data set [5]; 4 µg/mL and 10.8 µM in data set [6]; about 5 µM in data set [7] (read-out: 50% inhibitory concentration (IC50), Capan-1 cells, approximate); 2 µg/mL and 5.4 µM in data set [7] (CAPAN-1, MTT assay, 72 hours incubation, read-out: IC50); about 5 µM in data set [8] (read-out: 50% inhibitory concentration (IC50), BxPC-3 cells, approximate). Further, in data set [8] (BXPC-3, MTT assay, 72 hours incubation, read-out: IC50), the IC50 was 2 µg/mL and 5.4 µM. Further, the IC90 is 8 µg/mL and 21.6 µM in data set [4]; 35 µg/mL (≈ 95 µM) in [5]; 10 µg/mL and 27 µM in data set [6]; 5 µg/mL and 13.5 µM in data set [7] (CAPAN-1, MTT assay, 72 hours incubation, read-out: IC90); about 14 µM in [7] (Capan-1 cells, approximate, read-out: 90% inhibitory concentration (IC90)); 5 µg/mL and 13.5 µM in [8] (BXPC-3, MTT assay, 72 hours incubation, read-out: IC90). In data set [8] (BxPC-3 cells, approximate, read-out: 90% inhibitory concentration (IC90)), the IC90 was about 14 µM. Besides, the apoptosis after treatment entry in data set [9] is reported as “dose-related apoptosis”.

Values taken from patent US10004687B2 (priority 2005, dated 2018).
